Values joined by “and” are separate entries in the source; they are usually repeats but may differ in a detail not shown here. Identical values can stand only once.
Experiment: xn = mol fraction of the nth substance listed

CCCCOC(=O)c1ccccc1 + CCCCCC
101 kPa
Settings | viscosity [mPa·s]
298.15 K, x2 = 0.0788 | 2.272
298.15 K, x2 = 0.1269 | 2.042
298.15 K, x2 = 0.1801 | 1.81
298.15 K, x2 = 0.2539 | 1.536
298.15 K, x2 = 0.302 | 1.377
298.15 K, x2 = 0.3485 | 1.244
298.15 K, x2 = 0.4084 | 1.088
298.15 K, x2 = 0.4955 | 0.896
298.15 K, x2 = 0.5498 | 0.796
298.15 K, x2 = 0.6402 | 0.654
298.15 K, x2 = 0.6861 | 0.594
298.15 K, x2 = 0.7746 | 0.495
298.15 K, x2 = 0.8136 | 0.458
298.15 K, x2 = 0.8494 | 0.427
298.15 K, x2 = 0.8868 | 0.399
298.15 K, x2 = 0.9265 | 0.37
298.15 K, x2 = 0.961 | 0.348
308.15 K, x2 = 0.0668 | 1.923
308.15 K, x2 = 0.1277 | 1.7
308.15 K, x2 = 0.1875 | 1.5
308.15 K, x2 = 0.2458 | 1.331
308.15 K, x2 = 0.2926 | 1.211
308.15 K, x2 = 0.3554 | 1.063
308.15 K, x2 = 0.4013 | 0.966
308.15 K, x2 = 0.4549 | 0.863
308.15 K, x2 = 0.5013 | 0.785
308.15 K, x2 = 0.5515 | 0.707
308.15 K, x2 = 0.5967 | 0.644
308.15 K, x2 = 0.6407 | 0.59
308.15 K, x2 = 0.6896 | 0.536
308.15 K, x2 = 0.728 | 0.497
308.15 K, x2 = 0.7727 | 0.457
308.15 K, x2 = 0.8106 | 0.427
308.15 K, x2 = 0.8512 | 0.396
308.15 K, x2 = 0.8888 | 0.37
308.15 K, x2 = 0.9482 | 0.337
318.15 K, x2 = 0.0337 | 1.707
318.15 K, x2 = 0.1077 | 1.48
318.15 K, x2 = 0.1661 | 1.326
318.15 K, x2 = 0.231 | 1.166
318.15 K, x2 = 0.2845 | 1.05
318.15 K, x2 = 0.3438 | 0.934
318.15 K, x2 = 0.3951 | 0.846
318.15 K, x2 = 0.4512 | 0.757
318.15 K, x2 = 0.4998 | 0.691
318.15 K, x2 = 0.5513 | 0.624
318.15 K, x2 = 0.5518 | 0.625
318.15 K, x2 = 0.646 | 0.523
318.15 K, x2 = 0.6884 | 0.486
318.15 K, x2 = 0.7317 | 0.447
318.15 K, x2 = 0.7749 | 0.412
318.15 K, x2 = 0.8206 | 0.383
318.15 K, x2 = 0.8608 | 0.36
318.15 K, x2 = 0.9115 | 0.327
318.15 K, x2 = 0.9342 | 0.317

O=S(=O)([O-])NC1CCCCC1.[Li+] + O
viscosity [mPa·s], 101 kPa
Settings | x1 = 0.002028 | x1 = 0.002453 | x1 = 0.00294 | x1 = 0.003377 | x1 = 0.003805 | x1 = 0.004126 | x1 = 0.00489
293.15 K | 1.078 | 1.095 | 1.115 | 1.133 | 1.151 | 1.164 | 1.197
298.15 K | 0.956 | 0.9707 | 0.9874 | 1.002 | 1.018 | 1.029 | 1.058
303.15 K | 0.8547 | 0.8675 | 0.8819 | 0.8949 | 0.9081 | 0.9174 | 0.9409
313.15 K | 0.6978 | 0.7075 | 0.7186 | 0.7288 | 0.739 | 0.7458 | 0.7652
323.15 K | 0.5823 | 0.5898 | 0.5985 | 0.6067 | 0.6147 | 0.6202 | 0.6355

CCNCC + c1ccccc1
viscosity, 101.33 kPa
Settings | x1 = 0.2 | x1 = 0.4 | x1 = 0.5 | x1 = 0.6 | x1 = 0.8
293.15 K | 0.522 mPa·s and 0.522 mPa·s | 0.44 mPa·s | 0.411 mPa·s and 0.411 mPa·s | 0.387 mPa·s | 0.349 mPa·s
303.15 K | 0.463 mPa·s | 0.393 mPa·s | 0.367 mPa·s | 0.348 mPa·s | 0.314 mPa·s
308.15 K | 0.438 mPa·s and 0.438 mPa·s | 0.374 mPa·s | 0.35 mPa·s and 0.35 mPa·s | 0.333 mPa·s | 0.298 mPa·s

COCCOCCOCCO + CC1COC(=O)O1
298.15 K, 101.33 kPa
Settings | viscosity [mPa·s]
x1 = 0.0048 | 2.514
x1 = 0.015 | 2.563
x1 = 0.0231 | 2.601
x1 = 0.0338 | 2.645
x1 = 0.0436 | 2.701
x1 = 0.0626 | 2.807
x1 = 0.0855 | 2.896
x1 = 0.1268 | 3.064
x1 = 0.1715 | 3.253
x1 = 0.2173 | 3.462
x1 = 0.2578 | 3.648
x1 = 0.2932 | 3.814
x1 = 0.3343 | 4.013
x1 = 0.3636 | 4.167
x1 = 0.406 | 4.368
x1 = 0.445 | 4.559
x1 = 0.4717 | 4.699
x1 = 0.5024 | 4.844
x1 = 0.5261 | 4.965
x1 = 0.5629 | 5.143
x1 = 0.6084 | 5.347
x1 = 0.6548 | 5.581
x1 = 0.6969 | 5.687
x1 = 0.7326 | 5.831
x1 = 0.7667 | 5.978
x1 = 0.8023 | 6.05
x1 = 0.8213 | 6.09
x1 = 0.84 | 6.121
x1 = 0.8547 | 6.173
x1 = 0.88 | 6.194
x1 = 0.8997 | 6.201
x1 = 0.9173 | 6.208

CCNCC + CCCCCCCCCCO
viscosity [mPa·s], 101 kPa
Settings | x1 = 0.5973 | x2 = 0.0971 | x2 = 0.1985 | x2 = 0.2971 | x2 = 0.4003 | x2 = 0.5148 | x2 = 0.6024 | x2 = 0.7216 | x2 = 0.8014 | x2 = 0.8997
298.15 K | – | 0.472 | 0.762 | 1.184 | 1.834 | 2.865 | 3.979 | 5.858 | 7.47 | 9.664
303 K | 2.015 | – | – | – | – | – | – | – | – | –
313.15 K | – | 0.378 | 0.576 | 0.851 | 1.254 | 1.87 | 2.556 | 3.617 | 4.497 | 5.631
